Measurements from ChEMBL document CHEMBL3044832, “Synthesis and Insecticidal Activity of N-(Tolyloxybenzyl)-pyrazolecarboxamide Derivatives” (J Pestic Sci, 1999).

How the values were obtained:
Myzus persicae [1] = experiment: Insecticidal activity against Myzus persicae (green peach aphid) assessed as insect mortality at 0.78 ppm; format: functional
Myzus persicae [2] = experiment: Insecticidal activity against Myzus persicae (green peach aphid) assessed as insect mortality at 12.5 ppm; format: functional
Myzus persicae [3] = experiment: Insecticidal activity against Myzus persicae (green peach aphid) assessed as insect mortality at 50 ppm; format: functional
Myzus persicae [4] = experiment: Insecticidal activity against Myzus persicae (green peach aphid) assessed as insect mortality at 3.13 ppm; format: functional
[5] = Acute toxicity in Mus musculus (mouse); format: organism-based; conditions: in vivo
Plutella xylostella [6] = experiment: Insecticidal activity against Plutella xylostella (diamondback moth) assessed as insect mortality at 50 ppm; format: functional
Plutella xylostella [7] = experiment: Insecticidal activity against Plutella xylostella (diamondback moth) assessed as insect mortality at 12.5 ppm; format: functional
Plutella xylostella [8] = experiment: Insecticidal activity against Plutella xylostella (diamondback moth) assessed as insect mortality at 3.13 ppm; format: functional
Plutella xylostella [9] = experiment: Insecticidal activity against Plutella xylostella (diamondback moth) assessed as insect mortality at 0.78 ppm; format: functional

Row | Structure (SMILES) | mortality at 0.78 ppm (Myzus persicae [1]) | mortality at 12.5 ppm (Myzus persicae [2]) | mortality at 50 ppm (Myzus persicae [3]) | mortality at 3.13 ppm (Myzus persicae [4]) | LD50 [5] | mortality at 50 ppm (Plutella xylostella [6]) | mortality at 12.5 ppm (Plutella xylostella [7]) | mortality at 3.13 ppm (Plutella xylostella [8]) | mortality at 0.78 ppm (Plutella xylostella [9])
1 | CCc1nn(C)c(C(=O)NCc2ccc(Oc3ccccc3C)cc2)c1Cl | 0% | 100% | 100% | 0% | – | – | – | – | –
2 | CC1CCc2c1nn(C)c2C(=O)NCc1ccc(Oc2ccc(C(F)(F)F)cc2)cc1 (configuration not stated) | – | – | – | – | < 30 mg/kg | – | – | – | –
3 | Cc1ccc(Oc2ccc(CNC(=O)c3c(Cl)c(C)nn3C)cc2)cc1 | 0% | 100% | 100% | 0% | – | – | – | – | –
4 | CCCc1nn(C)c(C(=O)NCc2ccc(Oc3ccc(C)cc3)cc2)c1Cl | 0% | 0% | 80% | 0% | – | – | – | – | –
5 | Cc1ccc(Oc2ccc(CNC(=O)c3c(Cl)c(C(C)C)nn3C)cc2)cc1 | 0% | 30% | 100% | 0% | – | – | – | – | –
6 | Cc1ccc(Oc2ccc(CNC(=O)c3c(Cl)c(C(C)(C)C)nn3C)cc2)cc1 | 0% | 0% | 30% | 0% | – | – | – | – | –
7 | Cc1ccc(Oc2ccc(CNC(=O)c3c(Cl)c(C(F)(F)F)nn3C)cc2)cc1 | 0% | 0% | 0% | 0% | – | – | – | – | –
8 | CCc1cc(C(=O)NCc2ccc(Oc3ccc(C)cc3)cc2)n(C)n1 | 0% | 0% | 30% | 0% | – | – | – | – | –
9 | CCc1nn(C)c(C(=O)NCc2ccc(Oc3ccc(C)cc3)cc2)c1Br | 0% | 30% | 80% | 0% | – | – | – | – | –
10 | CCc1nn(C)c(C(=O)NCc2ccc(Oc3ccc(C)cc3)cc2)c1OC | 0% | 100% | 100% | 100% | – | – | – | – | –
11 | Cc1ccc(Oc2ccc(CNC(=O)c3c4c(nn3C)CCC4)cc2)cc1 | 0% | 30% | 100% | 0% | – | – | – | – | –
12 | Cc1ccc(Oc2ccc(CNC(=O)c3c4c(nn3C)C(C)CC4)cc2)cc1 (configuration not stated) | 0% | 80% | 100% | 0% | – | – | – | – | –
13 | CCC1CCc2c1nn(C)c2C(=O)NCc1ccc(Oc2ccc(C)cc2)cc1 (configuration not stated) | 0% | 30% | 80% | 0% | – | – | – | – | –
14 | Cc1ccc(Oc2ccc(CNC(=O)c3c4ccccc4nn3C)cc2)cc1 | 0% | 0% | 0% | 0% | – | – | – | – | –
15 | CCc1nn(C)c(C(=O)NCc2ccc(Sc3ccc(C)cc3)cc2)c1Cl | 30% | 100% | 100% | 0% | – | 30% | 30% | 0% | 0%
16 | CCc1nn(C)c(C(=O)NCc2ccc(Cc3ccc(C)cc3)cc2)c1Cl | 0% | 0% | 0% | 0% | – | 80% | 0% | 0% | 0%
17 | CCc1nn(C)c(C(=O)NCc2ccc(C(=O)c3ccc(C)cc3)cc2)c1Cl | 30% | 100% | 100% | 0% | – | 100% | 100% | 0% | 0%
18 | CCc1nn(C)c(C(=O)NCc2ccc(COc3ccc(C)cc3)cc2)c1Cl | 0% | 0% | 0% | 0% | – | 0% | 0% | 0% | 0%
19 | CCc1nn(C)c(C(=O)NCc2ccccc2Oc2ccccc2C)c1Cl | 0% | 0% | 0% | 0% | – | – | – | – | –
20 | CCc1nn(C)c(C(=O)NCc2ccccc2Oc2cccc(C)c2)c1Cl | 0% | 0% | 0% | 0% | – | – | – | – | –
21 | CCc1nn(C)c(C(=O)NCc2ccccc2Oc2ccc(C)cc2)c1Cl | 0% | 0% | 0% | 0% | – | – | – | – | –
22 | CCc1nn(C)c(C(=O)NCc2cccc(Oc3ccccc3C)c2)c1Cl | 0% | 30% | 30% | 0% | – | – | – | – | –
23 | CCc1nn(C)c(C(=O)NCc2cccc(Oc3cccc(C)c3)c2)c1Cl | 0% | 30% | 80% | 0% | – | – | – | – | –
24 | CCc1nn(C)c(C(=O)NCc2cccc(Oc3ccc(C)cc3)c2)c1Cl | 0% | 80% | 80% | 30% | – | – | – | – | –
25 | CCc1nn(C)c(C(=O)NCc2ccc(Oc3cccc(C)c3)cc2)c1Cl | 0% | 100% | 100% | 80% | – | – | – | – | –
26 | CCc1nn(C)c(C(=O)NCc2ccc(Oc3ccc(C)cc3)cc2)c1Cl [TOLFENPYRAD] | 30% | 100% | 100% | 100% | > 100 mg/kg | 100% | 100% | 30% | 0%
